Source: EPA's ToxValDB 9.5 (doi:10.2903/j.efsa.2005.102r)
In brackets after ≈: the same amount, converted by molar mass.

Key:
[1] = tested on: Aphidius rhopalosiphi; assay: LR50; higher = less toxic; conditions: not reported; mortality
[2] = tested on: Typhlodromus pyri; assay: LR50; higher = less toxic; conditions: not reported; mortality
[3] = tested on: Apis mellifera; conditions: acute, duration: 48 hours, mortality
[4] = tested on: Canidae; conditions: oral, Dog Other
[5] = tested on: Colinus virginianus; conditions: oral, diet
[6] = tested on: Oncorhynchus mykiss
[7] = tested on: Folsomia candida; conditions: chronic/long-term; duration: 28 days
[8] = tested on: Anas platyrhynchos; conditions: reproductive, duration: 5 days, oral, feed
[9] = tested on: Daphnia magna; conditions: chronic/long-term; duration: 21 days
[10] = tested on: Rattus norvegicus
[11] = tested on: Gammarus pulex; conditions: chronic/long-term; duration: 28 days
[12] = tested on: Pontoscolex corethrurus; conditions: chronic/long-term; reproduction
[13] = tested on: Neomysis kadiakensis
[14] = tested on: Tagia sp.; conditions: acute; mortality
[15] = acute, duration: 96 hours, mortality

CO/N=C(/C1=NOCCO1)c1ccccc1Oc1ncnc(Oc2ccccc2Cl)c1F [Fluoxastrobin]
LR50 [1]: 34.1 g/ha | LR50 [2]: 122 g/ha | LD50 ([3]; dermal): > 200 µg/piece | LD50 ([3]; oral, unspecified): > 843 µg/piece | NOAEL ([4]; chronic, duration: 1 years, clinical chemistry): 3 mg/kg-day | NOAEL ([4]; subchronic, duration: 90 days, body weight): 30 mg/kg-day | NOAEL ([4]; subchronic, duration: 90 days, clinical chemistry): 3 mg/kg-day | LC50 ([5]; acute, duration: 5 days, mortality): > 966 mg/kg-day | NOEC ([5]; reproduction developmental, duration: 5 days): 151 mg/kg-day | NOEL ([5]; short-term, mortality): 2000 mg/kg-day | LC50 [6, 15]: 0.435 mg/L (≈ 0.948 µM) | NOEC ([6]; chronic/long-term, duration: 95 days, other): 0.0286 mg/L | NOEC [7]: 5 mg/kg | NOEC [8]: 285 mg/kg-day | LC50 ([8]; mortality): > 2190 mg/kg-day | NOEC [9]: 0.18 mg/L | LD50 ([10]; acute, oral, mortality): > 2000 mg/kg | NOAEL ([10]; developmental, development): > 742 mg/kg-day | NOEC [11]: 0.0316 mg/L | NOEL [12]: 1.33 mg/kg | LC50 [13, 15]: 0.0604 mg/L (≈ 0.132 µM) | NOEC ([13]; chronic/long-term, duration: 28 days): 0.00061 mg/L | LC50 [14]: > 500 mg/kg
